Measurements as given in patent publication US20060020021A1, “Use of compounds derived from 2,3-dehydronaringenin for the treatment of inflammatory processes and pharmaceutical composition containing said derivatives” (FURFURAL ESPANOL, S.A., priority 2004, published 2006).

Legend:
[1] = test system: paw edema in mice induced by carragenin; assay: Test of paw edema in mice induced by carragenin (paw volume); type: in vivo, male Swiss albino mice; conditions: 70 mg/kg intraperitoneally 1 h before intradermal carragenin; significant at 1 h (p<0.025), 5 h (p<0.005), 24 h (p<0.0005)
Procedure: The anti-inflammatory capacity of the product of Formula (I), wherein R is a potassium cation, was tested: [drawing 3] in male Swiss albino mice of 8 to 10 weeks of age (38-44 g), from the Servicio de Animales de Laboratorio (Laboratory Animals Department) of the University of Murcia. The animals were maintained under standard conditions (temperature of 22±2° C., humidity 60±4% and light/dark cycle of 12 hours) with food and drink ad libitum. The animals were anesthetized with ether in the moment of inducing inflammation and during the measurements of the volume of the paw. Test of Paw Edema in Mice Induced by Carragenin
The inflammation was caused by intradermal injection of 0.05 ml of 1% Lambda Carrageenan (Sigma-Aldrich, Madrid, Spain) in saline solution in the plantar pad of the right hind paw. The measurement of the edema was carried out with a digital calibrator (Proinsa, Vitoria, Spain), measuring the 3 largest diameters of the paw for the volume calculation. The measurements were carried out in triplicate. The volume of the paw was measured immediately before (0 hours) and at 1, 5 and 24 hours after causing inflammation. The compound of Formula (I) was dissolved in sterile saline solution and intraperitoneally administered (70 mg/kg) 1 h before causing inflammation. […] Groups of 10 animals were used. […]

[2] = test system: paw edema in mice induced by carragenin; assay: Microscopic study and assessment of the injected plantar pad (edema, inflammatory infiltrate, degree 0-3); type: in vivo, male Swiss albino mice; conditions: treated group, 24 hours post-inoculation, 70 mg/kg i.p.
Procedure: The plantar pad area injected was extirpated at 24 hours post-inoculation; fixed in 10% buffered neutral formaldehyde, included in paraffin by the standard method, sectioned at 3 μm and stained with hematoxilin-eosin for its optical study which was carried out by two observers. The presence of edema and polynuclear neutrophils and monocytes was measured, being assessed as 0 (absence), 1 (slight), 2 (moderate) and 3 (intense) (FIGS. 3 to 6b).

O=c1cc(-c2ccc(O)cc2)oc2cc(O)cc(O)c12 [2,3-DHNA, 2,3-dehydronaringenin]
Increases in the volume of inoculated paw, treated group vs control group [1]: lower in the treated group than in the control group | samples with moderate inflammation (degree 2) [2]: 13.3% | samples with neither edema nor inflammatory infiltrate (degree 0) [2]: 60% | samples with slight inflammation (degree 1) [2]: 26.65%
